Blank lines part the entries; values can stand above or below the compound they belong to.
Key:
Assay type in all cases: biochemical, Rhodotorula toruloides
[1] = tested on: RTO4_11882 (D-galUA reductase, GAR1 homolog); assay: NADPH loss at […] nm; conditions: 0.3 mM NADPH, pH 7, 30°C
[2] = tested on: T1, RTO4_12062 (L-galactonate dehydratase); assay: semicarbazide assay at […] nm; conditions: 5 mM MgCl2, 50 mM sodium phosphate pH 7.0; tag removed
T1 construct: gene GaaB; full-length, N-terminal HIS6-TEV tag removed by TEV protease, expressed in E. coli Rosetta, IMAC

[3] = tested on: T2, RTO4_9774 (L-glyceraldehyde reductase); assay: NADPH loss at […] nm; conditions: 0.3 mM NADPH, pH 7, 30°C
T2 construct: gene GaaD

Km [1]: ~7 mM
Structure (SMILES): O=C(O)[C@H]1OC(O)[C@H](O)[C@@H](O)[C@H]1O (stereo partly drawn) [D-galUA]

Km [2]: 5.8 mM
Structure (SMILES): O=C(O)[C@@H](O)[C@H](O)[C@H](O)[C@@H](O)CO [L-galactonate]

Km [3]: 0.9 mM
Structure (SMILES): O=C[C@@H](O)CO [L-glyceraldehyde]

From PMC6918025, “Genomewide and Enzymatic Analysis Reveals Efficient D-Galacturonic Acid Metabolism in the Basidiomycete Yeast Rhodosporidium toruloides” (mSystems, 2019)
